# PubChem BioAssay (NCI)
#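 In this assay, cells in 96-well plates receive the compound at five concentrations for 48 hours. Endpoints are linearly interpolated between the surrounding concentrations. TGI: total growth inhibition.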
# What was measured:
# Assay in all cases: DTP human tumour cell line panel, 48 h
# [1] = test system: CAKI-1 renal
# [2] = test system: IGROV1 ovarian
# [3] = test system: COLO 205 colon
# [4] = test system: HCT-116 colon
# [5] = test system: NCI-H522 lung
# [6] = test system: MDA-MB-435
# [7] = test system: A498 renal
# [8] = test system: SNB-19 CNS
# [9] = test system: SR leukemia
# [10] = test system: ACHN renal
Structure (SMILES),TGI [1] [µM],TGI [2] [µM],TGI [3] [µM],TGI [4] [µM],TGI [5] [µM],TGI [6] [µM],TGI [7] [µM],TGI [8] [µM],TGI [9] [µM],TGI [10] [µM]
CC(=O)c1c(O)n(-c2ccc(C)cc2)c(=O)c2c(N)n[nH]c12,> 100,> 100,> 100,> 100,> 100,> 100,> 100,> 100,> 100,–
O=c1[nH]nc(-c2ccc(F)cc2)cc1-c1ccccc1,> 100,> 100,> 100,> 100,–,> 100,> 100,> 100,> 100,> 100
CC(CC[C@@]1(O)OC2C[C@H]3[C@@H]4CC[C@H]5CC(OC6OC(CO)C(OC7OC(CO)C(O)C(OC8OCC(O)C(O)C8O)C7OC7OC(CO)C(O)C(O)C7O)C(O)C6O)[C@H](O)CC5(C)[C@H]4CCC3(C)C2[C@@H]1C)COC1OC(CO)C(O)C(O)C1O (some centres undefined),43.8,> 50,31,47.3,22.3,> 50,> 50,> 50,> 50,> 50
CCC(=O)Nc1ccc(NCC(=O)Nc2ccc(OC)cc2)cc1,> 100,78,> 100,80.3,29.5,> 100,87.9,31.3,> 100,> 100
COc1ccc2oc(C(=O)N3CC(CCl)c4ccc(N)cc43)cc2c1 (centres undefined),0.648,0.782,1.28,0.576,0.0828,1.24,0.865,19.5,4.76,–
C=CCCC(=O)C(=[N+]=[N-])C(=O)CCC(=O)c1ccccc1,–,> 10,–,–,–,> 10,> 10,> 10,> 10,> 10
COc1ccc(C2C3=C(COC3=O)OC(C)(C)Oc3cc4c(cc32)OCO4)cc1OC (centres undefined),> 100,> 100,48.1,> 92.3,> 73.8,41.3,63.8,> 100,> 100,> 100
COC(=O)CNC(=O)CCC(C)[C@H]1CCC2C3C(C[C@H](OC(C)=O)[C@@]21C)[C@@]1(C)CCC2(C[C@H]1C[C@H]3OC(C)=O)OOC1(CCCCC1)OO2 (some centres undefined),3.78,2.98,3.89,6.25,3.14,4.06,34.4,17.8,4.21,3.85
O=[N+]([O-])C(C(Cl)=C(Cl)Cl)=C(n1cncn1)n1cncn1,11.4,39.7,26.7,31.9,28.7,> 71.8,> 100,> 100,> 100,37.5
C1=NCCOCCN=Cc2ccc(cc2)OCc2cccc(n2)COc2ccc1cc2,–,> 100,> 100,> 100,> 100,> 100,> 100,> 100,> 100,> 100
CNC(=S)/C(C#N)=C(\N)N1CCCC1,> 100,> 100,> 100,> 100,> 100,> 100,> 100,> 100,> 100,> 100
COc1cccc2cc(C(=O)NC34CC5CC(CC(C5)C3)C4)c(=N)oc12,> 100,> 85.7,> 100,> 100,> 88.7,> 100,> 100,> 100,> 47.4,> 100
N#Cc1c(-c2ccc([N+](=O)[O-])cc2)cc(-c2ccc(Nc3ccnc4cc(Cl)ccc34)cc2)nc1N,40.4,15,> 66,14.7,11.2,17.5,51.7,47.4,2.48,> 72.6
CC(C)=C[C@@H]1O[C@H](O)[C@@H]([C@H]2CC[C@@]3(C)[C@@H]4CC[C@H]5C(C)(C)C(=O)CC[C@@]56C[C@@]46CC[C@]23C)[C@@H]1O,31,35.4,43.3,28.5,30.3,41.7,32.8,39.1,25.8,32
O=C1C(Cl)=C(NCCF)C(=O)c2ncccc21,–,3.43,–,3.51,–,0.408,> 10,2.99,> 10,5.22
O=C1NC(=Nc2ccccc2)C(=Nc2ccccc2)N1c1ccccc1,31.7,31,28,32.3,11.5,29.7,31,31.4,51.1,30.6
CCOC(=O)c1nc2cc(C(F)(F)F)ccc2nc1Oc1ccc(F)cc1,> 100,> 100,> 100,64.2,> 100,> 100,> 100,> 100,> 100,> 100
Nc1c2cc3ccc2nc2ccc(cc12)OCCOCCOCCOCCOCCOCCO3,> 10,> 10,> 10,> 10,> 10,> 10,> 10,> 10,> 10,> 10
CC(=O)NC1C(OCc2ccccc2)OC(CO)C(O)C1OCC(=O)N[C@@H](C)C(=O)N[C@H](CCC(=O)NCCNc1ccc([N+](=O)[O-])c2[nH]c3ccccc3c(=O)c12)C(N)=O (some centres undefined),> 100,–,> 100,> 100,> 100,> 100,58,93.2,> 100,61.4
C#CC(O)/C=C/C(O)CCCC(O)CC#CC(O)C#CCCCCC(O)/C=C/CCCC(O)/C=C/CCCCCCCCCCCCCC(O)C(O)C#CC(=O)O (centres undefined),> 25,> 25,> 25,> 25,> 25,> 25,> 25,> 25,> 25,> 25

Structure (SMILES),TGI [1] [µM],TGI [2] [µM],TGI [3] [µM],TGI [4] [µM],TGI [5] [µM],TGI [6] [µM],TGI [7] [µM],TGI [8] [µM],TGI [9] [µM],TGI [10] [µM]
C#C[C@]1(O)CC[C@H]2[C@@H]3CCC4=C/C(=N/OC(=O)c5cccc6c(=O)c7ccccc7[nH]c56)CCC4[C@H]3CC[C@@]21CC (some centres undefined),> 85,> 100,> 79.9,> 100,56.1,> 100,> 100,> 100,35.7,> 100
CCN(CC)CCN1C(=O)C(=O)N(c2cccc3ccccc23)C1=O,> 10,> 10,> 10,> 10,> 10,> 10,> 10,> 10,> 10,> 10
COc1cc(S(=O)(=O)Nc2ccc(-c3csc(N4C(=O)C(Cl)C4c4cccs4)n3)cc2)ccc1Cl (centres undefined),> 100,> 100,> 100,> 100,30.6,> 100,> 100,> 100,91.5,> 100
C=C(C)C(=O)OC1C[C@H](COC(C)=O)C2CC=C(CO)C2C2OC(=O)C(=C)[C@H]12 (some centres undefined),> 100,> 100,30,38.2,33.8,> 100,> 100,> 100,65.2,> 100
C=CCN(CCN(CC=C)S(=O)(=O)c1ccc(C)cc1)S(=O)(=O)c1ccc(C)cc1,–,–,> 100,> 100,> 100,> 100,> 100,> 100,> 100,> 100
COc1ccc(/C=C/C(=O)Oc2ccccc2OC)cc1,> 91.1,> 51.2,21.2,9.55,> 72,> 80.5,> 100,> 100,32.3,> 59.4
O=c1c2c3c(sc2nc2n1N=CN(c1ccc(F)cc1)C2)CCCC3,> 100,> 100,> 100,> 100,> 100,> 100,> 100,> 100,> 100,> 100
C=CC[C@]1(C2=NC(C)(C)CO2)c2ccccc2-c2ccccc2[C@H]1C(C)=O,> 55,> 48.6,15,20.2,9.45,14.7,21.1,34.7,14,> 45.9
C=CCn1c(-c2ccc(Cl)cc2)csc1=Nc1ccccc1OC,> 100,> 100,> 100,> 100,–,> 100,> 100,> 100,> 100,> 100
COC(=O)[C@H](Cc1c[nH]c2ccccc12)NC(=O)c1ccccc1I,50.6,> 100,33.3,> 100,30.9,84.5,37.4,> 100,58.7,30.8
NC(N)=N/N=C/c1c(-c2cc([N+](=O)[O-])c(Cl)cc2Cl)nc2n1CCS2,> 100,36.4,–,> 100,51.5,74.3,> 100,16.5,3.43,> 100
NCCNC(=O)CN(CC(=O)O)C1CCCCC1N(CC(=O)O)CC(=O)O (centres undefined),> 100,> 100,> 100,> 100,> 100,> 100,> 100,> 100,> 100,> 100
Cc1cc2nnc(C(N)=O)c(N)c2cc1C,> 100,> 100,> 100,> 100,> 100,> 100,> 100,> 100,> 100,> 100
CCOC(=O)C1(C(=O)OCC)C=C(c2ccccc2)N(C2OC(COC(C)=O)C(OC(C)=O)C(OC(C)=O)C2OC(C)=O)C1=S (centres undefined),> 100,> 100,> 100,> 100,> 100,> 100,> 100,> 100,> 100,–
COc1ccc(CCN2C(=O)CC34C=CC(CC3C2=O)O4)cc1OC (centres undefined),> 100,> 100,> 100,> 100,–,> 100,> 100,> 100,> 100,> 100
NS(=O)(=O)c1nnc(NS(=O)(=O)c2ccc([N+](=O)[O-])cc2)s1,> 100,> 100,> 100,> 100,77.5,> 100,> 100,–,> 100,> 100
C[n+]1cn(-c2nc3ccccc3nc2[N-]S(=O)(=O)c2ccccc2)c2ccccc21,> 100,> 100,> 100,> 100,5.27,> 100,–,> 100,> 100,> 100
COc1ccc2c(c1OC)C(=O)O[C@@H]2[C@H]1c2c(cc3c(c2OC)OCO3)CCN1C,> 100,> 100,> 100,> 100,> 100,32.2,> 100,> 100,> 100,> 100
CC(=O)NC1(C)C(C)C2CC1C(C)C2(C)C (centres undefined),> 100,> 100,> 100,> 100,> 100,> 100,> 100,> 100,> 100,> 100
Cc1cc(NS(=O)(=O)c2ccc(Nc3c4ccccc4nc4c(C(=O)NCCO)cccc34)cc2)no1,88.2,> 100,> 100,–,30.2,> 100,> 100,> 100,> 100,> 100
